According to ChEMBL document CHEMBL1201862, “PubChem BioAssay data set” (2004):
Active and inactive are the calls of the source.

Tests used:
[1] = molecular target: Mitogen-activated protein kinase 8 (Homo sapiens, UniProt P45983); format: functional;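 also: value comes from one member of a kinome-wide kinase profiling panel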
[2] = molecular target: High affinity nerve growth factor receptor (Homo sapiens, UniProt P04629); format: functional;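 also: NTRK1 tested as one member of a kinome-wide profiling panel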
[3] = molecular target: Dual specificity tyrosine-phosphorylation-regulated kinase 1B (Homo sapiens, UniProt Q9Y463); assay: Navigating the Kinome. Panel member name: DYRK1B; format: functional
[4] = molecular target: ALK tyrosine kinase receptor (Homo sapiens, UniProt Q9UM73); format: functional;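 also: ALK tested as one member of a kinase panel screen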
[5] = molecular target: Hepatocyte growth factor receptor (Homo sapiens, UniProt P08581); format: functional;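 also: kinase panel profiling across the kinome, with MET as the panel member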
[6] = molecular target: Cyclin-dependent kinase 19 (Homo sapiens, UniProt Q9BWU1); assay: Navigating the Kinome. Panel member name: CDC2L6; format: functional
[7] = molecular target: Receptor-type tyrosine-protein kinase FLT3 (Homo sapiens, UniProt P36888); format: functional;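 also: FLT3 was tested as one member of a kinome-wide kinase panel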
[8] = molecular target: Serine/threonine-protein kinase pim-1 (Homo sapiens, UniProt P11309); format: functional
[9] = molecular target: Fibroblast growth factor receptor 1 (Homo sapiens, UniProt P11362); format: functional
[10] = molecular target: Glycogen synthase kinase-3 beta (Homo sapiens, UniProt P49841); format: functional;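 also: value comes from a broad kinome profiling panel, with GSK3B as the panel member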
[11] = inhibitors of firefly luciferase expression or activity, dose response, H4 neuroglioma cells, luminescence (AID 1990); format: functional, cell-based
[12] = molecular target: T1, Apoptotic protease-activating factor 1 (Homo sapiens, UniProt O14727); format: functional
T1 sequence (O14727 whole entry): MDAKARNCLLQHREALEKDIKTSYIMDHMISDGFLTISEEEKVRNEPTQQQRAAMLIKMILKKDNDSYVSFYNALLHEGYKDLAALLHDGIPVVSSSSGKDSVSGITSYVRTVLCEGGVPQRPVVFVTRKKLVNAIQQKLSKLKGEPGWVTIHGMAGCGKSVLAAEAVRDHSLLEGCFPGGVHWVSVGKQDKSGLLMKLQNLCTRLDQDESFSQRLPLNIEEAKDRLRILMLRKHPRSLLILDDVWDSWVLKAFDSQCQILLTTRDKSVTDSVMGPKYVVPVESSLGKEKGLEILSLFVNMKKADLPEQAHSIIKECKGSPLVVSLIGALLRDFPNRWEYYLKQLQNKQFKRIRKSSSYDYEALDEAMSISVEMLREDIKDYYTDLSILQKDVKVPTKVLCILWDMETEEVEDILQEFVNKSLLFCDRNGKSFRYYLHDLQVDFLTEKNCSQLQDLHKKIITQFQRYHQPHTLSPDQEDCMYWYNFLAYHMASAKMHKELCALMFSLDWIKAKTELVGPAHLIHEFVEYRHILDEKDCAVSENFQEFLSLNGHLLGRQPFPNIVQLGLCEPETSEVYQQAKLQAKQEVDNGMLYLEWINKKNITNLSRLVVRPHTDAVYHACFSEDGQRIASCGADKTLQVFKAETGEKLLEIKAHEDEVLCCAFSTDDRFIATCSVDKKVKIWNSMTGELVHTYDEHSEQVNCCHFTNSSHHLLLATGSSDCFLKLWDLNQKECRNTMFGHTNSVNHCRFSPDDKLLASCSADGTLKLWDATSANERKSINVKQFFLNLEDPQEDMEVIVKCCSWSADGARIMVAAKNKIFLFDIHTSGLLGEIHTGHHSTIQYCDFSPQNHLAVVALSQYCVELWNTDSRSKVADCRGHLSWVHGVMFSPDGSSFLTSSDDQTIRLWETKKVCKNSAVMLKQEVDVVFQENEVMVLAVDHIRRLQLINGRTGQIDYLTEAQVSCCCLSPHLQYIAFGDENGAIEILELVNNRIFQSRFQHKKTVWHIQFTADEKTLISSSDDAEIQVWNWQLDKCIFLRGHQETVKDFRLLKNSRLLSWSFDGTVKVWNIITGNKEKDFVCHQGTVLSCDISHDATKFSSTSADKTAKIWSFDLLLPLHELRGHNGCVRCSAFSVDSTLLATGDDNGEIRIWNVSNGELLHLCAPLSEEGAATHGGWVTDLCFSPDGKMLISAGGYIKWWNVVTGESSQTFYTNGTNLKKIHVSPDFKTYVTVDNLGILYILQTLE

[13] = HEK293T cell cytotoxicity, dose response, cytotoxicity control for HIV Vif inhibitor project, cherry-picks (AID 652208); format: functional, cell-based
[14] = molecular target: T2, Estrogen receptor beta (Homo sapiens, UniProt Q92731); assay: ERβ–SRC-3 coactivator interaction inhibitors, confirmation, orthogonal assay, biochemical, ELISA, streptavidin-HRP readout (AID 1060)
[15] = molecular target: Peroxisome proliferator-activated receptor gamma/Nuclear receptor corepressor 2 (Homo sapiens, UniProt P37231+Q9Y618); assay: Counterscreen for NR2E3 inverse agonists: TR-FRET-based biochemical high throughput dose response assay to identify inverse agonists of the interaction between peroxisome proliferator-activated receptor gamma (PPARg) and nuclear receptor co-repressor 2 (NCOR2).; format: functional
[16] = molecular target: Photoreceptor-specific nuclear receptor (Homo sapiens, UniProt Q9Y5X4); assay: NR2E3 inverse agonists, dose response, biochemical, TR-FRET (AID 463256); format: functional
[17] = system: HEK293; assay: cells; details: Homo sapiens
[18] = molecular target: T2, Estrogen receptor beta
[19] = molecular target: Mothers against decapentaplegic homolog 3 (Homo sapiens, UniProt P84022); assay: SMAD3 transcription factor inhibitors, dose response (AID 715); format: functional
[20] = Luminescence Cell-Based Dose Response HTS to Identify Inhibitors of 5'UTR Stem-Loop Driven Prion Protein mRNA Translation in H4 Neuroglioblastoma Cells. [Related pubchem assays: 1827 (Project Summary), 1813 (Primary HTS)]; format: functional
[21] = inhibitors of SNCA 5'UTR-driven reporter translation, confirmation, H4 neuroglioma cells, luminescence (AID 1988); format: functional, cell-based
[22] = molecular target: Protein-tyrosine kinase 2-beta (Homo sapiens, UniProt Q14289);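 also: potency of inhibitors of PYK2 kinase phosphorylation of poly-GT substrate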
[23] = system: HEK293; assay: cells; details: Homo sapiens; remark: listed apart in the source
[24] = molecular target: T1, Apoptotic protease-activating factor 1; assay: SAR analysis of small molecule inhibitors of Apaf-1 in a Fluorescent assay.; format: functional; details: read-out: IC50_Mean
[25] = molecular target: Dual specificity tyrosine-phosphorylation-regulated kinase 1A (Homo sapiens, UniProt Q13627); format: functional;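 also: measured against DYRK1A as one member of a broad kinome profiling panel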
[26] = molecular target: Aurora kinase A (Homo sapiens, UniProt O14965); format: functional;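 also: value from the Navigating the Kinome kinase panel profiling, panel entry STK6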
[27] = molecular target: Serine/threonine-protein kinase PLK1 (Homo sapiens, UniProt P53350); format: functional;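 also: PLK1 measured as one member of a kinome-wide profiling panel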
[28] = molecular target: Tyrosine-protein kinase receptor TYRO3 (Homo sapiens, UniProt Q06418); format: functional;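 also: TYRO3 value obtained as one member of a kinome-wide profiling panel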
[29] = molecular target: Activated CDC42 kinase 1 (Homo sapiens, UniProt Q07912); assay: Navigating the Kinome. Panel member name: ACK1; format: functional
[30] = molecular target: Aurora kinase B (Homo sapiens, UniProt Q96GD4); format: functional
[31] = molecular target: Platelet-derived growth factor receptor beta (Homo sapiens, UniProt P09619); format: functional;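 also: value comes from a kinome panel, with PDGFRB tested as one panel member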
[32] = molecular target: Leukocyte tyrosine kinase receptor (Homo sapiens, UniProt P29376); assay: Navigating the Kinome. Panel member name: LTK; format: functional
[33] = molecular target: Platelet-derived growth factor receptor alpha (Homo sapiens, UniProt P16234); assay: Navigating the Kinome. Panel member name: PDGFRA; format: functional
[34] = molecular target: 5'-AMP-activated protein kinase catalytic subunit alpha-1 (Homo sapiens, UniProt Q13131); format: functional
[35] = molecular target: Protein kinase C theta type (Homo sapiens, UniProt Q04759); assay: Navigating the Kinome. Panel member name: PRKCQ; format: functional
[36] = molecular target: Inhibitor of nuclear factor kappa-B kinase subunit epsilon (Homo sapiens, UniProt Q14164); assay: Navigating the Kinome. Panel member name: IKBKE; format: functional
[37] = molecular target: Serine/threonine-protein kinase Nek2 (Homo sapiens, UniProt P51955); format: functional
[38] = molecular target: Serine/threonine-protein kinase D3 (Homo sapiens, UniProt O94806); format: functional;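 also: determined within a kinase panel screen, with PRKCN as the panel member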
[39] = molecular target: Dual specificity protein kinase CLK2 (Homo sapiens, UniProt P49760); format: functional
[40] = molecular target: Macrophage colony-stimulating factor 1 receptor (Homo sapiens, UniProt P07333); format: functional;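 also: value comes from the Navigating the Kinome screening panel, CSF1R member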
[41] = molecular target: Activin receptor type-1 (Homo sapiens, UniProt Q04771); assay: Navigating the Kinome. Panel member name: ACVR1; format: functional
[42] = molecular target: Dual specificity protein kinase CLK4 (Homo sapiens, UniProt Q9HAZ1); format: functional
[43] = molecular target: cAMP-dependent protein kinase catalytic subunit alpha (Homo sapiens, UniProt P17612); format: functional
[44] = molecular target: Cyclin-dependent kinase 9 (Homo sapiens, UniProt P50750); format: functional;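 also: value from the CDK9 entry of a kinome-spanning kinase panel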
[45] = molecular target: Serine/threonine-protein kinase PLK3 (Homo sapiens, UniProt Q9H4B4); format: functional
[46] = molecular target: RAC-gamma serine/threonine-protein kinase (Homo sapiens, UniProt Q9Y243); format: functional
[47] = molecular target: Vascular endothelial growth factor receptor 2 (Homo sapiens, UniProt P35968); format: functional
[48] = molecular target: Calcium/calmodulin-dependent protein kinase type II subunit alpha (Homo sapiens, UniProt Q9UQM7); assay: Navigating the Kinome. Panel member name: CAMK2A; format: functional
[49] = molecular target: Death-associated protein kinase 3 (Homo sapiens, UniProt O43293); format: functional;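 also: measured as one member of a kinome-wide profiling panel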
[50] = molecular target: LIM domain kinase 1 (Homo sapiens, UniProt P53667); assay: Navigating the Kinome. Panel member name: LIMK1; format: functional
[51] = molecular target: Rho-associated protein kinase 1 (Homo sapiens, UniProt Q13464); format: functional;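 also: measured within a broad kinome-wide panel profiling many kinases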
[52] = molecular target: Mitogen-activated protein kinase kinase kinase kinase 4 (Homo sapiens, UniProt O95819); format: functional
[53] = molecular target: Leucine-rich repeat serine/threonine-protein kinase 2 (Homo sapiens, UniProt Q5S007); format: functional;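 also: value from a broad kinome-wide panel profiling study in which LRRK2 was one of the kinases tested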
[54] = molecular target: Cyclin-dependent kinase 8 (Homo sapiens, UniProt P49336); assay: Navigating the Kinome. Panel member name: CDK8; format: functional
[55] = molecular target: RAC-alpha serine/threonine-protein kinase (Homo sapiens, UniProt P31749); format: functional;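 also: AKT1 affinity measured as one member of a kinome-wide kinase profiling panel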
[56] = molecular target: Cyclin-dependent kinase 7 (Homo sapiens, UniProt P50613); format: functional;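 also: value comes from a kinome-wide kinase profiling panel in which CDK7 is one member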
[57] = molecular target: Serine/threonine-protein kinase pim-3 (Homo sapiens, UniProt Q86V86); format: functional;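 also: value obtained as one member of a broad kinase panel profiling effort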
[58] = molecular target: cAMP-dependent protein kinase catalytic subunit PRKX (Homo sapiens, UniProt P51817); format: functional
Chain of cAMP-dependent protein kinase catalytic subunit PRKX (P51817 whole entry): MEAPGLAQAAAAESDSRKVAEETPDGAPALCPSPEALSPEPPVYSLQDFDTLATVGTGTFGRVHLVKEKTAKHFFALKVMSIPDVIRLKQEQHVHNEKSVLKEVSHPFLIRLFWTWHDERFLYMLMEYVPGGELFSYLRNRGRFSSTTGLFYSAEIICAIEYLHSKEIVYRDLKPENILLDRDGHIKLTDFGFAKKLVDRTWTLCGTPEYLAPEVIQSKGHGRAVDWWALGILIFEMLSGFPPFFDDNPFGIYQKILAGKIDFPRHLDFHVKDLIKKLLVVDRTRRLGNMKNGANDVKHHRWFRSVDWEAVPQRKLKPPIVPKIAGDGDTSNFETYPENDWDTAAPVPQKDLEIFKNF

Chain of Mitogen-activated protein kinase 8 (P45983 whole entry): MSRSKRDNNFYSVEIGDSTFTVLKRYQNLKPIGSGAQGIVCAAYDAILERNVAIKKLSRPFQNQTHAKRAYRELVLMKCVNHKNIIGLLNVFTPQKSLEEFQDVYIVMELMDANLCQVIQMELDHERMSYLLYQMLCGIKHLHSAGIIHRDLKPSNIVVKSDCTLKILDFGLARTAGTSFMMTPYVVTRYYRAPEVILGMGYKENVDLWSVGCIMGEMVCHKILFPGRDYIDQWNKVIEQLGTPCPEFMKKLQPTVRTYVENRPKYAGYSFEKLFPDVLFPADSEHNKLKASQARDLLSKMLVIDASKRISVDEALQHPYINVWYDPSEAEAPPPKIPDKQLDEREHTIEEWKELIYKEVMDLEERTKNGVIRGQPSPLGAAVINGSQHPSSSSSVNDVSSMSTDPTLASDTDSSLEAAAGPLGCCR
Chain of Dual specificity tyrosine-phosphorylation-regulated kinase 1B (Q9Y463 whole entry): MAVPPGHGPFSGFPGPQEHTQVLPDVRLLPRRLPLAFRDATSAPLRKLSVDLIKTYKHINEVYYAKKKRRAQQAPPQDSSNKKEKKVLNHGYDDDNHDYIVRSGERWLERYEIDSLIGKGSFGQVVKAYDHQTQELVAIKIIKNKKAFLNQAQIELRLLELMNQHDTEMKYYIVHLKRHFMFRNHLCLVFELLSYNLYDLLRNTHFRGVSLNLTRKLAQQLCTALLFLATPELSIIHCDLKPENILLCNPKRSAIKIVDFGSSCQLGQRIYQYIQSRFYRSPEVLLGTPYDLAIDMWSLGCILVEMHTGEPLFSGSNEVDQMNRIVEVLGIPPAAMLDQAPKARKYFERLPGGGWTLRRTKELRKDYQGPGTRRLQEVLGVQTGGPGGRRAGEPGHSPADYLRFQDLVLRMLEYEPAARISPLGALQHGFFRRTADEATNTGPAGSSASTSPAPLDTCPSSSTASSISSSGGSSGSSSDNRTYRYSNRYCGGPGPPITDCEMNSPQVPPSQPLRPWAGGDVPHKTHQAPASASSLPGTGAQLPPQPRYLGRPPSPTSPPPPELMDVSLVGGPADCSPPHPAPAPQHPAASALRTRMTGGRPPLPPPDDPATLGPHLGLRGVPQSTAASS
T2 sequence (Q92731 whole entry): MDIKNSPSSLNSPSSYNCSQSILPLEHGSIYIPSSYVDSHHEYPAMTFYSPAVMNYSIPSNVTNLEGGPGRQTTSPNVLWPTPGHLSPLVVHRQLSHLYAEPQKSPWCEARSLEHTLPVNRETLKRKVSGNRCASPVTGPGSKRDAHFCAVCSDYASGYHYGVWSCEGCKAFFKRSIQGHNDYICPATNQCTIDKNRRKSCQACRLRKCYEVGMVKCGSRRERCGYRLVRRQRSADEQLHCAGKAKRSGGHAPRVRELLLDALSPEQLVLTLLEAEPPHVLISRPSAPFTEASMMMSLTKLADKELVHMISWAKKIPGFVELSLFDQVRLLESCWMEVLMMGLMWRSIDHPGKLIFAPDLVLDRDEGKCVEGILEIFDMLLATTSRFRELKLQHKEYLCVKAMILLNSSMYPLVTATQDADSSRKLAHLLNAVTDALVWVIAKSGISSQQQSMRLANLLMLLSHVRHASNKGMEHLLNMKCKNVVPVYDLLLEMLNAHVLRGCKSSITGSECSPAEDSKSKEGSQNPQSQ
Chain of Serine/threonine-protein kinase pim-1 (P11309 whole entry): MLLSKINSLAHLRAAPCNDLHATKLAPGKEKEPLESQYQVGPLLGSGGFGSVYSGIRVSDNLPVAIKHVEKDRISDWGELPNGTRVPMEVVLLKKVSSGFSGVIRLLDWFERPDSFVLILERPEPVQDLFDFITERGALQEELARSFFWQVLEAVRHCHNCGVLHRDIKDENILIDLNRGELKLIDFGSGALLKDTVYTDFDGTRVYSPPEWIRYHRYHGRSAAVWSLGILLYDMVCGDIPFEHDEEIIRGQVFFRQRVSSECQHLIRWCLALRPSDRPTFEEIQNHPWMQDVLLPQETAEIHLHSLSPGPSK
Chain of High affinity nerve growth factor receptor (P04629 whole entry): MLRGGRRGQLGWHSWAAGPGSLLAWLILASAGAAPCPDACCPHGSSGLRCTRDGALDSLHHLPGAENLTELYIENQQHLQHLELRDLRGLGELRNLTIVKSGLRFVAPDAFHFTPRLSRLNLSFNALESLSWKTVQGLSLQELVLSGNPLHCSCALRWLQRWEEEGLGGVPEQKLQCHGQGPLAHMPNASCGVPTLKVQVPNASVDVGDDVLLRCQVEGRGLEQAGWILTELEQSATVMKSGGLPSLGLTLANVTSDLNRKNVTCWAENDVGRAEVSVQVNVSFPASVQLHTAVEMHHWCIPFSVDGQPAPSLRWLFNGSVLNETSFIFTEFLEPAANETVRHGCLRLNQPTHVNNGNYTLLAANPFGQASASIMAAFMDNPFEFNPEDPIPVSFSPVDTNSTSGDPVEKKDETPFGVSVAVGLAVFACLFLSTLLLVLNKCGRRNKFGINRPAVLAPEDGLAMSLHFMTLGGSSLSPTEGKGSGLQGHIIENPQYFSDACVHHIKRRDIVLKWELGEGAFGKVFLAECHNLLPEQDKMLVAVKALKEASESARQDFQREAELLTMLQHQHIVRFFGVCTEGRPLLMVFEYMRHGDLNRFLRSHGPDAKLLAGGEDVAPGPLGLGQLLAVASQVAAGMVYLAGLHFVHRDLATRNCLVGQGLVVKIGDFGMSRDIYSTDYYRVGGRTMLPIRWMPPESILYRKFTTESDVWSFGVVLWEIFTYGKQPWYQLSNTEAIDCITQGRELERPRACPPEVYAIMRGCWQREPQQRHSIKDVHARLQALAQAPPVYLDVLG
Chain of Fibroblast growth factor receptor 1 (P11362 whole entry): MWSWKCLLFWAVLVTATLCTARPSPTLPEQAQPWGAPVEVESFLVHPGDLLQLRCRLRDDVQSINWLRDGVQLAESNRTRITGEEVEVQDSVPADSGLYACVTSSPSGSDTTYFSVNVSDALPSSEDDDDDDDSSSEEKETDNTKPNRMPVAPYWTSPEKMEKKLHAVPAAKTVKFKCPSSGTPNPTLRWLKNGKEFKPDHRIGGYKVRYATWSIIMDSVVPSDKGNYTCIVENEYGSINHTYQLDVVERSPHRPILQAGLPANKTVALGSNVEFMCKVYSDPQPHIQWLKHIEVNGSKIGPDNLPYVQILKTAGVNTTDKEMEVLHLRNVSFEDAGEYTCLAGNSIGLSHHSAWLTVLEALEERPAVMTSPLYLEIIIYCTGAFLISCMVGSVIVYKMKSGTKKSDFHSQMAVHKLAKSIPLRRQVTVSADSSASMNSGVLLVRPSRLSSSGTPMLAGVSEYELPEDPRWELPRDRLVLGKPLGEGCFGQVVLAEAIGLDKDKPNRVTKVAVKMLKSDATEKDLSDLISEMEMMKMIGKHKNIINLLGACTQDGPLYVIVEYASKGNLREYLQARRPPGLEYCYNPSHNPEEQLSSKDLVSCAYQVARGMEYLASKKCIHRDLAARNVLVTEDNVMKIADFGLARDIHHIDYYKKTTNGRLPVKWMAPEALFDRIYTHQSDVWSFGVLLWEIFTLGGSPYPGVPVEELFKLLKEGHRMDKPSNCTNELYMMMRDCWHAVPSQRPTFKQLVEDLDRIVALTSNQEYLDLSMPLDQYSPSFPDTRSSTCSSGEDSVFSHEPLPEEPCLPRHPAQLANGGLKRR
Chain of Aurora kinase A (O14965 whole entry): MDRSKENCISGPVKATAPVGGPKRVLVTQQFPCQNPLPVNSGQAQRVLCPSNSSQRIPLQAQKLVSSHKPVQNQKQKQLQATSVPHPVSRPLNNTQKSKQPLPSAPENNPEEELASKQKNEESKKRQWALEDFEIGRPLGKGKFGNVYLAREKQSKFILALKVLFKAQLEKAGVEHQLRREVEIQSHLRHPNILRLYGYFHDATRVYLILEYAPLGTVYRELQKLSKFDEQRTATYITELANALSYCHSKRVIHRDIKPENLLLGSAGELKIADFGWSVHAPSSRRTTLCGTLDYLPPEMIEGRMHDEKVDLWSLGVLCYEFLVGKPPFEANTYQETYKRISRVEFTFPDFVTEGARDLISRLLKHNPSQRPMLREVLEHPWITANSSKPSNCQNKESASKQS
Chain of Protein kinase C theta type (Q04759 whole entry): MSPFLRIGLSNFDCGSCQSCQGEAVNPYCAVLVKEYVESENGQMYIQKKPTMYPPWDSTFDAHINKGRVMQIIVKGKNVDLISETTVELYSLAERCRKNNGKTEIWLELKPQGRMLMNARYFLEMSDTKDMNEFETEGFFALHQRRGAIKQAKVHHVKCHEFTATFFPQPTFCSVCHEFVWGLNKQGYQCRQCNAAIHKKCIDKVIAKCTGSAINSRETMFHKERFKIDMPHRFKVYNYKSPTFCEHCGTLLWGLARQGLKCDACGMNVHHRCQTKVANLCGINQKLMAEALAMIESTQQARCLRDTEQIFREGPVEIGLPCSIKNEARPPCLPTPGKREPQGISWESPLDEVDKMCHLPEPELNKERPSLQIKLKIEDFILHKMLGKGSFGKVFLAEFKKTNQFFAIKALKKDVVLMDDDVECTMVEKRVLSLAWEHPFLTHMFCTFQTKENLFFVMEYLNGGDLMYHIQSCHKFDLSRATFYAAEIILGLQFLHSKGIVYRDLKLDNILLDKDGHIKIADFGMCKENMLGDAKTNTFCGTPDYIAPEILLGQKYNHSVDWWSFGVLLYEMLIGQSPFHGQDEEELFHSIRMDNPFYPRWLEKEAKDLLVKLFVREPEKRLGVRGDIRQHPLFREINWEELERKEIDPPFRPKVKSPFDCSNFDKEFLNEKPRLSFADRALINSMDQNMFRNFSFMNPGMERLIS

CS(=O)(=O)c1cccc(-c2cnn3c(C(N)=O)cc(-c4ccccc4)nc23)c1
Ki [1]: 3.98 µM (active) | Ki [2]: 2 µM (active) | Ki [3]: 2 µM (active) | Ki [4]: 5.01 µM (active) | Ki [5]: 2.51 µM (active) | Ki [6]: > 100 µM (inactive) | Ki [7]: 2.51 µM (active) | Ki [8]: 3.98 µM (active) | Ki [9]: 2 µM (active) | Ki [10]: 1.26 µM (active)

O=C(Nc1ccc(-c2nc3cc(NC(=O)c4cccs4)ccc3[nH]2)cc1)c1cccs1
EC50 [11]: 0.225 µM (active) | IC50 [12]: 8.21 µM (active) | AC50 [13]: 23.1 µM (active) | IC50 [14]: > 109 µM (not active) | IC50 [15]: 10.5 µM (not active) | IC50 [16]: 9.36 µM (active) | EC50 [17]: > 59.6 µM (inactive) | IC50 [18]: 2.61 µM (active) | IC50 [19]: 64.4 µM (not active) | EC50 [20]: 40.1 µM (active) | EC50 [21]: 0.275 µM (active) | IC50 [22]: 3.97 µM (active) | EC50 [23]: > 59.6 µM (inactive) | IC50 [24]: 8.37 µM (active)

Nc1n[nH]c2nc(Cl)sc12
Ki [25]: 6.31 µM (active) | Ki [26]: 25.1 µM (active) | Ki [27]: > 79.4 µM (inactive) | Ki [28]: 50.1 µM (active) | Ki [29]: 79.4 µM (active) | Ki [30]: 50.1 µM (active) | Ki [31]: > 79.4 µM (inactive) | Ki [1]: 63.1 µM (active) | Ki [32]: 15.8 µM (active) | Ki [33]: 50.1 µM (active) | Ki [34]: 39.8 µM (active) | Ki [2]: 25.1 µM (active) | Ki [3]: 15.8 µM (active) | Ki [35]: 79.4 µM (active) | Ki [36]: 39.8 µM (active) | Ki [37]: 20 µM (active) | Ki [38]: 63.1 µM (active) | Ki [39]: 39.8 µM (active) | Ki [40]: > 63.1 µM (inactive) | Ki [41]: 6.31 µM (active) | Ki [42]: 5.01 µM (active) | Ki [43]: 31.6 µM (active) | Ki [44]: 12.6 µM (active) | Ki [45]: > 79.4 µM (inactive) | Ki [46]: > 100 µM (inactive) | Ki [47]: > 100 µM (inactive) | Ki [48]: 63.1 µM (active) | Ki [49]: 31.6 µM (active) | Ki [8]: > 63.1 µM (inactive) | Ki [50]: 12.6 µM (active) | Ki [51]: 39.8 µM (active) | Ki [52]: 50.1 µM (active) | Ki [53]: 15.8 µM (active) | Ki [9]: > 63.1 µM (inactive) | Ki [54]: 15.8 µM (active) | Ki [55]: > 79.4 µM (inactive) | Ki [56]: 39.8 µM (active) | Ki [57]: 39.8 µM (active) | Ki [58]: 50.1 µM (active)
